The values that follow are results of earlier work, collected in patent US9609876B2, “Antimicrobial compositions” (priority 2012, dated 2017).

The conditions of series [1]: in vivo.

On to `CC(=O)CCC(=O)O` [Levulinic acid], for which, in series [1], the LD50 was 1850 mg/kg.
As for `CCCCCCCCCCCC(=O)N[C@@H](CCCNC(=N)N)C(=O)OCC.Cl` [LAE, N^α-lauroyl-L-arginine ethyl ester monohydrochloride], the “pH range in which it is stable and maintains its antimicrobial activity” value is recorded as 3-7.
